The values that follow come from patent publication US4605641A, “Synthetic vasoactive intestinal peptide analogs” (Hoffmann-La Roche Inc., priority 1984, dated 1986).

Each structure is given as a SMILES string. Peptide text beside a SMILES is read from it.

One may read the EC50 as the concentration that produces a half-maximal response.

Assay [1] deals with guinea pig trachea smooth muscle. Briefly: Bronchodilator (relaxant) effect on isolated guinea pig tracheal rings. The settings on record: for Relative Potency: guinea pig trachea, relative to VIP = 100%; for EC50: guinea pig tracheal rings, relaxation as % of maximum response to VIP 10^-6 M, three tissues pooled, linear regression, read-out: EC50 (M), agonist activity, bronchodilator effect. Format: cell-based. The text has this:
The bronchodilatory effect of VIP analogs was studied in a model utilizing guinea pig trachea. Wasserman, M. A. et al. "Comparative In Vitro Tracheal Relaxant Effects of Porcine and Hen VIP" in Vasoactive Intestinal Peptide ed. Said, S.I., Raven Press (New York, 1982).
All tissues were taken from male albino guinea pigs weighing 400-600 g, anesthetized with urethane 2 g/kg i.p. After exsanguination the trachea was removed and divided into four ring segments (3 mm length). Each ring was suspended by two 30 guage stainless steel wires in a 10 ml jacket tissue bath and attached via 4-0 silk thread to a Grass force displacement transducer (model FT03C, Grass Instrument Co., Quincy, MA), for isometric recording of tension. The smooth muscle was bathed in modified Krebs solution of the following composition: NaCl, 120 mM; KCl, 4.7 mM; CaCl2, 2.5 mM; MgSO4.7H2 O; 1.2 mM; NaHCO3, 25 mM; KH2 PO4 monobasic, 1.2 mM; and dextrose, 10 mM. Tissue baths were maintained at 37.5° C. and constantly bubbled with 95% O2 and 5% CO2. Responses were recorded on an 8 channel and 4 channel Hewlett-Packard (model 7702B and 7754A, respectively) recorder (Hewlett Packard, Paramus, NJ). Tracheal rings were placed under a resting tension of 1.5 g which was determined to be at or near optimal in preliminary experiments. Frequent readjustments of tension were required during the 60 min. stabilization period which followed. Tissues were rinsed at 15 min. intervals.
(§1) Cumulative concentration response curves were obtained for each tissue by successive […] in the bath concentration of VIP or potential VIP agonists according to the method of VanRossum J. M., Arch. Int Pharmacodyn, 143, 299-330 (1963). Only one cummulative dose response curve was obtained on a single piece of tissue. To minimize variability between tissues, relaxant responses are expressed as a percentage of the maximum response obtainable to VIP (10^-6 M=100%) added at the end of the concentration response curve. Responses obtained from three tissues were pooled and EC50 values were determined by linear regression.

Assay [2] has as its system Human Bronchial Smooth Muscle. Briefly: Relaxation of isolated human bronchial smooth muscle rings. Format: cell-based. The settings on record: for Rel. Potency: human bronchial smooth muscle, relative to VIP (1-28) = 100%. The procedure: Human bronchial smooth muscle or intra-pulmonary arteries were obtained from surgical section or autopsy from Overlook Hospital, Summit, N.J. Airway or vascular rings were suspended by two 30 gauge stainless steel wires in a 10 ml jacket tissue bath and attached via 4-0 silk thread to a Grass forcer displacement transducer (model FT030C, Grass Instrument Co., Quincy, MA), for isometric recording of tension. The smooth muscle was bathed in modified Kreb's solution of the following composition: NaCl, 120 mM; KCl, 4.7 mM; CaCL2, 2.5 mM; MgSO4.7H2 O; 1.2 mM; NaHCO3, 25 mM; KH2 PO4 monobasic, 1.2 mM; and dextrose, 10 mM. Tissue baths were maintained at 37.5° C. and constantly bubbled with 95% O2 and 5% CO2. Responses were recorded on a 8 channel and 4 channel Hewlett-Packard (model 7702B and 7754A, respectively) recorder (Hewlett Packard, Paramus, NJ). All tissues were placed under a resting tension (airway, 1.5 g; vascular, 1 g) which was determined to be near optimal in preliminary experiments. Frequent readjustments of tension were required during the 120-180 min. stabilization period which followed. Tissues were rinsed at 15 min. intervals. Vascular tissues were primed once with phenylephrine (10^-5 M) and washed for an additional hour. Steady state contractions of vacular tissues were obtained with phenylephrine (10^-5 M) while airway tissues were precontracted with histamine (3×10^-4 M).
as §1, with “noted above.” for “J. M., Arch. Int Pharmacodyn, 143, 299-330 (1963).”, “cumulative” for “cummulative”, “were” for “are”, “papaverine (vascular, 10^-4 M=100%) or isoproterenol (airway, 10^-4” for “VIP (10^-6”, “curve. […]” for “curve.”, “four” for “three”

In the case of `CCCC[C@H](NC(=O)[C@H](CCC(N)=O)NC(=O)[C@H](CCCCN)NC(=O)[C@H](CCCNC(=N)N)NC(=O)[C@H](CC(C)C)NC(=O)[C@H](CCCCN)NC(=O)[C@@H](NC(=O)[C@H](Cc1ccc(O)cc1)NC(=O)[C@H](CC(N)=O)NC(=O)[C@H](CC(=O)O)NC(=O)[C@@H](NC(=O)[C@H](Cc1ccccc1)NC(=O)[C@@H](NC(=O)[C@H](C)NC(=O)[C@H](CC(=O)O)NC(=O)[C@H](CO)NC(=O)[C@@H](N)Cc1c[nH]cn1)C(C)C)[C@@H](C)O)[C@@H](C)O)C(=O)N[C@@H](C)C(=O)N[C@H](C(=O)N[C@@H](CCCCN)C(=O)N[C@@H](CCCCN)C(=O)N[C@@H](Cc1ccc(O)cc1)C(=O)N[C@@H](CC(C)C)C(=O)N[C@@H](CC(N)=O)C(=O)N[C@@H](CO)C(=O)N[C@H](C(=O)N[C@@H](CC(C)C)C(=O)N[C@@H](CC(N)=O)C(N)=O)[C@@H](C)CC)C(C)C` [(Lys^12, Nle^17)--VIP, (Lys^12, Nle^17)-VIP] (HELM PEPTIDE1{H.S.D.A.V.F.T.D.N.Y.T.K.L.R.K.Q.[Nle].A.V.K.K.Y.L.N.S.I.L.N.[am]}$$$$V2.0), in assay [1], the “Relative Potency” value came to 263% and the EC50 was determined as 3.8e-09 M. Also, in assay [2], the “Rel. Potency” value turned out to be 165%.

Take `CCCC[C@H](NC(=O)[C@H](CCC(N)=O)NC(=O)[C@H](CCCCN)NC(=O)[C@H](CCCNC(=N)N)NC(=O)[C@H](CC(C)C)NC(=O)[C@H](CCCN)NC(=O)[C@@H](NC(=O)[C@H](Cc1ccc(O)cc1)NC(=O)[C@H](CC(N)=O)NC(=O)[C@H](CC(=O)O)NC(=O)[C@@H](NC(=O)[C@H](Cc1ccccc1)NC(=O)[C@@H](NC(=O)[C@H](C)NC(=O)[C@H](CC(=O)O)NC(=O)[C@H](CO)NC(=O)[C@@H](N)Cc1c[nH]cn1)C(C)C)[C@@H](C)O)[C@@H](C)O)C(=O)N[C@@H](C)C(=O)N[C@H](C(=O)N[C@@H](CCCCN)C(=O)N[C@@H](CCCCN)C(=O)N[C@@H](Cc1ccc(O)cc1)C(=O)N[C@@H](CC(C)C)C(=O)N[C@@H](CC(N)=O)C(=O)N[C@@H](CO)C(=O)N[C@H](C(=O)N[C@@H](CC(C)C)C(=O)N[C@@H](CC(N)=O)C(N)=O)[C@@H](C)CC)C(C)C` [(Orn^12, Nle^17)--VIP, (Orn^12, Nle^17)VIP]: in assay [1], the “Relative Potency” value worked out at 200% and the EC50 is 5e-09 M. Also, the “Rel. Potency” value in assay [2] was found to be 195%.

Take `CC[C@H](C)[C@H](NC(=O)[C@H](CO)NC(=O)[C@H](CC(N)=O)NC(=O)[C@H](CC(C)C)NC(=O)[C@H](Cc1ccc(O)cc1)NC(=O)[C@H](CCCCN)NC(=O)[C@H](CCCCN)NC(=O)[C@@H](NC(=O)[C@H](C)NC(=O)[C@H](CCSC)NC(=O)[C@H](CCC(N)=O)NC(=O)[C@H](CCCCN)NC(=O)[C@H](CCCNC(=N)N)NC(=O)[C@H](CC(C)C)NC(=O)[C@H](CCCNC(=N)N)NC(=O)[C@@H](NC(=O)[C@H](Cc1ccc(O)cc1)NC(=O)[C@H](CC(N)=O)NC(=O)[C@H](CC(=O)O)NC(=O)[C@@H](NC(=O)[C@H](Cc1ccccc1)NC(=O)[C@@H](NC(=O)[C@H](C)NC(=O)[C@H](CC(=O)O)NC(=O)[C@H](CO)NC(=O)[C@@H](N)Cc1c[nH]cn1)C(C)C)[C@@H](C)O)[C@@H](C)O)C(C)C)C(=O)N[C@@H](CC(C)C)C(=O)N[C@@H](CC(N)=O)C(N)=O` [VIP, Vasoactive intestinal peptide]: in assay [1], the “Relative Potency” value was found to be 100% and the concentration for a half-maximal effect (EC50) came out at 1e-08 M. Besides, in assay [2], the “Rel. Potency” value was determined as 100%. For the same compound, in assay [2] (human in vitro tissue, summary of Table II), the “Bronchodilator / relaxant activity (in words)” value is “weak relaxant”.

For the compound `CCCC[C@H](NC(=O)[C@H](CCC(N)=O)NC(=O)[C@H](CCCCN)NC(=O)[C@H](CCCNC(=N)N)NC(=O)[C@H](CC(C)C)NC(=O)[C@H](CCCNC(=N)N)NC(=O)[C@@H](NC(=O)[C@H](Cc1ccc(O)cc1)NC(=O)[C@H](CC(N)=O)NC(=O)[C@H](CC(=O)O)NC(=O)[C@@H](NC(=O)[C@H](Cc1ccccc1)NC(=O)[C@@H](NC(=O)[C@H](C)NC(=O)[C@H](CC(=O)O)NC(=O)[C@H](CO)NC(=O)[C@@H](N)Cc1c[nH]cn1)C(C)C)[C@@H](C)O)[C@@H](C)O)C(=O)N[C@@H](C)C(=O)N[C@H](C(=O)N[C@@H](CCCCN)C(=O)N[C@@H](CCCCN)C(=O)N[C@@H](Cc1ccc(O)cc1)C(=O)N[C@@H](CC(C)C)C(=O)N[C@@H](CC(N)=O)C(=O)N[C@@H](CO)C(=O)N[C@H](C(=O)N[C@@H](CC(C)C)C(=O)N[C@@H](CC(N)=O)C(N)=O)[C@@H](C)CC)C(C)C` [(Nle^17)--VIP, (Nle^17)VIP], in assay [1], the “Relative Potency” value stood at 156% and the EC50 is 6.4e-09 M. The “Rel. Potency” value in assay [2] is given as 215%.

Take `CCCC[C@H](NC(=O)[C@H](CCC(N)=O)NC(=O)[C@H](CCCCN)NC(=O)[C@H](CCCNC(=N)N)NC(=O)[C@H](CC(C)C)NC(=O)[C@H](CCCNC(=N)N)NC(=O)[C@@H](NC(=O)[C@H](Cc1ccc(O)cc1)NC(=O)[C@H](CC(N)=O)NC(=O)[C@H](CC(=O)O)NC(=O)[C@@H](NC(=O)[C@H](Cc1ccccc1)NC(=O)[C@@H](NC(=O)[C@H](C)NC(=O)[C@H](CC(=O)O)NC(=O)[C@H](CO)NC(=O)[C@H](Cc1c[nH]cn1)NC(C)=O)C(C)C)[C@@H](C)O)[C@@H](C)O)C(=O)N[C@@H](C)C(=O)N[C@H](C(=O)N[C@@H](CCCCN)C(=O)N[C@@H](CCCCN)C(=O)N[C@@H](Cc1ccc(O)cc1)C(=O)N[C@@H](CC(C)C)C(=O)N[C@@H](CC(N)=O)C(=O)N[C@@H](CO)C(=O)N[C@H](C(=O)N[C@@H](CC(C)C)C(=O)N[C@@H](CC(N)=O)C(N)=O)[C@@H](C)CC)C(C)C` [Ac--(Nle^17)--VIP, Ac-(Nle^17)VIP]: in assay [1], the “Relative Potency” value was 111% and the EC50 is 9e-09 M. Further, the “Rel. Potency” value in assay [2] is given as 2800%.
